Source: patent US20170182058A1, “TREATMENT OF RETT SYNDROME” (priority 2014, published 2017)
Like-named read-outs stand apart in the source and are kept apart here.

Experiments:
[1] = in vitro permeability of a layer of CaCo-2 cells; type: in vitro ADME, human; details: human, Caco-2; test conc 50 μM, assay duration 2 hr; read-out: mean A->B Papp (apparent permeability)
[2] = test system: CaCo-2 cells; experiment: in vitro permeability of a layer of CaCo-2 cells; type: in vitro ADME, human; details: based on in vitro CaCo-2 permeability
[3] = test system: mice; experiment: enhancement of learning in animals; type: in vivo; details: compared with galantamine
Source text: Potentiation of nicotinic receptors facilitates release of a number of different neurotransmitters including dopamine, glutamate, and GABA.

[4] = test system: Mecp2 mice; experiment: respiratory function, plethysmograph; type: in vivo; details: IP or gavage, 0.1-20 mg/kg
Procedure: Respiratory function was monitored in a plethysmograph (EMKA Technologies) for 30 minutes prior to and 1 hour after drug administration (one set of mice received IP injections and one set of mice received oral gavage). [N=2 mice/group at each dose and each administration route; for the vehicle controls, N=6 WT/group; N=6 Mecp2/group]. Data were analyzed using repeated measures analysis of variance.

[5] = target: cholinesterase; details: cholinesterase inhibitor (Han et al 1991); cited from earlier work
[6] = plasma stability; type: in vitro ADME; details: based on animal and in-vitro studies
[7] = test system: female Mecp2 mice; experiment: novel object recognition (NOR) task; type: in vivo; details: Mecp2 females
Procedure: Cognitive function was assessed using the novel object recognition (NOR) task using methods previously described (Schaevitz et al. 2013). […] Novel object memory was assessed. during three sessions. This task relies on the innate tendency of a mouse to explore unfamiliar objects vs. familiar objects. Testing was performed in an open-field arena. Twenty-four hours prior to training, mice were habituated to the arena for 10 min. Ninety minutes before training, the mice were administered drug or vehicle (0.1, 0.5, 1.0, 2.5 and 5.0 mg/kg IP). During training, mice were given 10 min to explore two identical Lego Objects (A +A). Short- and long-term object memory were assessed in two subsequent sessions (24 h after the completion of training) during which mice were given 10 min to explore the familiar (A) or a novel (B or C) object. The duration of exploration (defined as the mouse's snout or forelimbs physically touching or approaching within 1 cm of an object) of familiar and novel objects was measured. The amount of time spent exploring the novel object over the total time exploring both novel and familiar objects in each session was used to measure object memory. [N==6/dose of 0.1, 0.5 and 1.0; N=1/dose of 2.5 and 5.0 mg/kg; for vehicle N=6 WT and N=6 Mecp2 mice.]
For the novel Objection recognition task data, we created a matrix of all wildtype and. Mecp2 females who were administered the vehicle and a second matrix comparing Mecp2 females with and without the drug (all doses combined).

[8] = test system: nicotinic receptors; experiment: neuronal electrophysiological activity via nicotinic receptors; details: galantamine positive allosteric modulatory site on nicotinic receptors
[9] = test system: mice; details: cited from earlier work; for adverse effects at high doses: 50-100 mg/kg
[10] = test system: Mecp2 mice; experiment: locomotor activity, photobeam activity system; type: in vivo; details: 0.1-20 mg/kg
Procedure: Locomotor activity was monitored using methods described previously (Shaevitz et al. 2013 Genes Brain Behav. 12(7): 732-40. doi: […]). Mecp2 mutant males (between 1 and 3 months old) and females (between 3 and 6 months old) and age-matched controls were monitored for one-hour prior to and 12 hours after drug (or vehicle: 20% DMSO in saline) administration (one set of mice received IP injections and one set of mice received oral gavage) in doses that ranged from 0.1-20 mg/kg). Activity was measured across the 12-h dark cycle using a photobeam activity system (San Diego Instruments, San Diego, Calif., USA). Mice were placed individually into a cage (47×25×21 cm) inside a rectangular arena equipped with a 3×8 array of photobeams. The average number of ambulatory (two adjacent) and fine (repeated single) beam breaks per hour over the 12 h was compared. [N=2 mice/group at each dose and each administration route; for the vehicle controls, N=6 WT/group; N=6 Mecp2/group]. Data were analyzed using repeated measures analysis of variance.

[11] = drug IP, all doses 0.1-5.0 mg/kg combined

| SMILES | Papp A→B at 2 hr, 50 μM [1] [×10⁻⁶ cm/s] | predicted oral bioavailability [2] [%] | enhancing learning [3] | respiratory activity [4] | IC50 [5] [nM] | stability in plasma [6] | NOR scores = or below 0.5 (share of mice that did not learn) [7, 11] [%] | NOR scores above 0.5 (share of mice that learned) [7, 11] [%] | NOR task performance versus vehicle ([7]; Chi square p = 0.0321) | neuronal electrophysiological activity [8] | adverse effects at high doses ([9]; listed as Galantamine n-butylcarbamate) | adverse effects at high doses ([9]; listed as n-butylcarbamate) | lethality (no lethality up to dose) [9] [mg/kg] | safety and tolerability ([10]; Mecp2 mice of both sexes and controls, from locomotor and respiratory tests) | locomotor activity ([10]; Mecp2 mice of either sex, IP or gavage) | ambulatory and fine motor movements ([10]; all doses tested, IP or oral gavage) |
| --- | --- | --- | --- | --- | --- | --- | --- | --- | --- | --- | --- | --- | --- | --- | --- | --- |
| CNC(=C[N+](=O)[O-])NCCSCc1ccc(CN(C)C)o1 [Ranitidine, reference compound] | 1.1 |  |  |  |  |  |  |  |  |  |  |  |  |  |  |  |
| CC(=O)CC(c1ccccc1)c1c(O)c2ccccc2oc1=O (stereo not drawn) [Warfarin, reference compound] | 34.7 |  |  |  |  |  |  |  |  |  |  |  |  |  |  |  |
| CCCCNC(=O)O[C@H]1C=C[C@@]23CCN(C)Cc4ccc(OC)c(c42)O[C@H]3C1 [galantamine n-butylcarbamate] | 20.8 | 80 | effective in enhancing learning at lower doses than galantamine | did not affect respiratory activity | 1090 | stable in plasma | 65 | 35 | improves memory for a novel object and cognitive performance | enhances neuronal electrophysiological activity | affects cardiac and motor functions | wobbly and off-balance with rapid heart rate still present at 4 hours, but were recovered at 24 hours | > 100 | safe and well tolerated | did not impair locomotor activity | not significant altered |
